From patent US20070015828A1 (Wyeth, priority 2005, published 2007) come the findings set out here.

Each structure is given as a SMILES string. “Also recorded” adds a separate entry of the source.

Data set [1] concerns the target Adrenergic, Alpha 2C (hr) (Homo sapiens, UniProt P18825). The experiment in a line: Receptor binding assay: Adrenergic Alpha 2C. The note with it: Test Compound @ 10 1 M.
The test system of data set [2] is Dopamine Transporter. Kind of data set: Dopamine transporter binding assay. The conditions noted are these: Test Compound @ 10 1 M.
Data set [3] deals with spinal nerve ligation model of neuropathic pain, mechanical hyperalgesia. The experiment in a line: Spinal nerve ligation model of neuropathic pain, mechanical hyperalgesia. In kind it is in vivo. The note with it: rat. The procedure: (§1) 1-[2-dimethylamino-1-(4-phenol)ethyl]-cis-1,4-cyclohexandiol was dissolved in sterile saline and administered orally (p.o.) at dosages of 10 mg/kg, 30 mg/kg and 100 mg/kg. Gabapentin was purchased from Toronto Research Chemicals (Ontario, Canada) and suspended in 2% Tween 80 in 0.5% methylcellulose and administered intraperitoneally (i.p.).
For the visceral pain study male CD-1 mice (20-25 g, Charles River; Kingston/Stoneridge, NY) were housed in groups of 5/cage on bedding and for the neuropathic study male Sprague-Dawley rats (125-150 g, Harlan; Indianapolis, Ind.) were housed 3/cage on bedding. For all studies animals were maintained in climate-controlled rooms on a 12-hour light/dark cycle (lights on at 0630) with food and water available ad libitum.
Surgical procedures were performed under 4% isoflurane/O2 anesthesia, delivered via nose cone and maintained at 2.5% for the duration of the surgery. After induction of anesthesia, the incision site was shaved and prepared in a sterile manner. […]
For the neuropathic model statistical significance was determined using a repeated measure ANOVA using a customized SAS-excel application (SAS Institute, Cary, N.C.). Significant main effects were analyzed further by subsequent least significant difference analysis. […]
Assessment of mechanical hyperalgesia thresholds were measured as the hind paw withdrawal threshold to a noxious mechanical stimulus and was determined using the paw pressure technique [Randall, L. O. and Selitto, J. J., A method for measurement of analgesic activity on inflamed tissue, Arch. […] Thresholds were evaluated prior to surgery and reassessed three weeks after SNL surgery. On test day, rats were administered vehicle or test compound mechanical thresholds assessed 1, 3, 5 and 24 hr after administration (n=10/group).

In data set [4] the target is T1, Norepinephrine transporter (Homo sapiens, UniProt P23975).
T1 construct: Novascreen (contract assay)
Kind of data set: Norepinephrine transporter (human recombinant) binding assay.

Data set [5] addresses T2, Opiate, Kappa (hr) (Homo sapiens, UniProt P41145).
T2 construct: Novascreen (contract assay)
The experiment in a line: Receptor binding assay: Opiate Kappa. The conditions noted are these: Test Compound @ 10 1 M.

Data set [6] has as its target T3, Muscarinic, MS (hr) (Homo sapiens, UniProt P08912).
T3 construct: Novascreen (contract assay)
Kind of data set: Receptor binding assay: Muscarinic MS. The note with it: Test Compound @ 10 1 M.

Data set [7] can be described thus: In vitro metabolism in hepatic microsomes, human. It counts as in vitro ADME. The conditions noted are these: both sexes, mixed male and female humans, read-out: t1/2 in hepatic microsomes. The procedure:
(§2) In vitro metabolism of 1-[2-dimethylamino-1-(4-phenol)ethyl]-cis-1,4-cyclohexandiol was conducted in the hepatic microsomes of Sprague-Dawley rats, male dogs, male monkeys and mixed male and female humans to characterize metabolic stability and identification of metabolites. 1-[2-dimethylamino-1-(4-phenol)ethyl]-cis-1,4-cyclohexandiol was stable (t1/2>60 minutes) in hepatic microsomes indicating Phase I and II metabolism was minimal in all species.

Data set [8] has as its system mouse PPQ induced writhing model. Kind of data set: Visceral pain model: PPQ-induced constrictions (writhing). It counts as in vivo. The procedure: as §1
For the visceral pain study male CD-1 mice (20-25 g, Charles River; Kingston/Stoneridge, NY) were housed in groups of 5/cage on bedding and for the neuropathic study male Sprague-Dawley rats (125-150 g, Harlan; Indianapolis, Ind.) were housed 3/cage on bedding. […]
The ability of 1-[2-dimethylamino-1-(4-phenol)ethyl]-cis-1,4-cyclohexandiol to attenuate acute visceral (abdominal) pain was assessed following an i.p. injection of 2 mg/kg PPQ (dissolved in 4% ethanol in distilled water, Sigma-Aldrich, St. Louis, Mo.) [Siegmund, E., et al., Proceedings of the Society for Experimental Biology and Medicine., 95 (1957) […]]. […] During testing, following PPQ administration, mice were individually placed in a Plexiglas cage and the total number of abdominal constrictions was recorded for one-minute periods, starting at 5 and 10 minutes after PPQ injection.
Statistical significance was determined using a one-way ANOVA using a customized SAS-excel application (SAS Institute, Cary, N.C.). […]
In general terms: An intraperitoneal irritant provokes the stretching counted in writhing tests.

Data set [9] has as its system GABA A, Benzo, central. The experiment in a line: Receptor binding assay: GABA A benzo central. The note with it: Test Compound @ 10 1 M.
The target in data set [10] is Dopamine, D1 (hr) (Homo sapiens, UniProt P21728). The experiment in a line: Receptor binding assay: Dopamine D1. The conditions noted are these: Test Compound @ 10 1 M.
The target of data set [11] is T4, Adrenergic, Alpha 1A (Rattus norvegicus, UniProt P43140).
T4 construct: Novascreen (assay provider)
The experiment in a line: Receptor binding assay: Adrenergic Alpha 1A. The conditions noted are these: Test Compound @ 10 1 M.

The target in data set [12] is T5, Serotonin Transporter (Homo sapiens, UniProt P31645).
T5 construct: Novascreen (contract assay)
Kind of data set: Serotonin transporter (human) binding assay.

Data set [13] concerns Nicotinic (a-bungarotoxin insens). In kind it is binding. The note with it: Test Compound @ 10 1 M.
Data set [14] in a line: In vitro metabolism in hepatic microsomes, rat. The note with it: Sprague-Dawley rats, read-out: t1/2 in hepatic microsomes. It counts as in vitro ADME. The procedure:
as §2

Data set [15] has as its target T6, Serotonin, 5HT1A (hr) (Homo sapiens, UniProt P08908).
T6 construct: Novascreen (contract assay)
Kind of data set: Receptor binding assay: Serotonin 5HT1A. The conditions noted are these: Test Compound @ 10 1 M.

Data set [16] deals with rat hot plate assay. The experiment in a line: Rat hot plate assay (acute pain). In kind it is in vivo. The note with it: up to 30 mg/kg po. For orientation: Hot-plate and tail-flick tests time the reaction to a heat stimulus.
The test system of data set [17] is Melatonin. Kind of data set: Receptor binding assay: Melatonin. The conditions noted are these: Test Compound @ 10 1 M.
For data set [18], the target named is Adrenergic, Beta 2 (hr) (Homo sapiens, UniProt P07550). The experiment in a line: Receptor binding assay: Adrenergic Beta 2. The note with it: Test Compound @ 10 1 M.
The subject of data set [19] is Adenosine A1. Kind of data set: Receptor binding assay: Adenosine A1. The conditions noted are these: Test Compound @ 10 1 M.
Where [20] appears, read: interpretation of the binding data in words.

T1 sequence (P23975 whole entry): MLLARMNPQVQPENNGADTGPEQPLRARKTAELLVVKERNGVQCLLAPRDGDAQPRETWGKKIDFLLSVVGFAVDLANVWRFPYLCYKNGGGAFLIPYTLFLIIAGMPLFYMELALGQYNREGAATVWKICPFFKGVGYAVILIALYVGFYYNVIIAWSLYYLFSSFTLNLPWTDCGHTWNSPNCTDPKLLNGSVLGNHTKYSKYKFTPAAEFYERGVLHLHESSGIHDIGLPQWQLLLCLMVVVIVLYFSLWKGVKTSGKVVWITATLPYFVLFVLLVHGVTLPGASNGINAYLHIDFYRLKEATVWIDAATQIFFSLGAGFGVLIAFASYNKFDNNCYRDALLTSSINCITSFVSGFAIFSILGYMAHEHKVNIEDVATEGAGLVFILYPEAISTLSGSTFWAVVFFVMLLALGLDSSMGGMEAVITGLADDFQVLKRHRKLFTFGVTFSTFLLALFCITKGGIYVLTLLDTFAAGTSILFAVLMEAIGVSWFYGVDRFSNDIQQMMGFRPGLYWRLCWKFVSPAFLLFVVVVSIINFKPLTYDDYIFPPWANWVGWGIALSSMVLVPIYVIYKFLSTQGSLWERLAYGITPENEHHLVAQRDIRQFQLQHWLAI
T5 sequence (P31645 whole entry): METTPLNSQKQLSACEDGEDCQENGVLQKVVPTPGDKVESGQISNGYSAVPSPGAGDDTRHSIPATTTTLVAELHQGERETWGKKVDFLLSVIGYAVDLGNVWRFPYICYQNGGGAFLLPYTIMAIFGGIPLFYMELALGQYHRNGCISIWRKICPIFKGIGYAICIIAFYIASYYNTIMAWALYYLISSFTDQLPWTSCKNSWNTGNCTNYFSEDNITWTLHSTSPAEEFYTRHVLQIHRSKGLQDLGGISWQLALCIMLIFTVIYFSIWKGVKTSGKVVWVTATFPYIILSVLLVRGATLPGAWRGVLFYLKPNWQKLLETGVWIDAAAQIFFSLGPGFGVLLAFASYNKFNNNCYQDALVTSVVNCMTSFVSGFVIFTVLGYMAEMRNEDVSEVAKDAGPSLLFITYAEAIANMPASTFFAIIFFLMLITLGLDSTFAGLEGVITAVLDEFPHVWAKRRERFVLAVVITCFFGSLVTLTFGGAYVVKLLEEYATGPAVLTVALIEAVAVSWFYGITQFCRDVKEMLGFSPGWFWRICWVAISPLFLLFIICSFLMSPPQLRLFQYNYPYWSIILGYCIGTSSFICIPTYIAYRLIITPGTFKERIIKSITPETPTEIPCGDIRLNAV
Chain of Dopamine, D1 (hr) (P21728 whole entry): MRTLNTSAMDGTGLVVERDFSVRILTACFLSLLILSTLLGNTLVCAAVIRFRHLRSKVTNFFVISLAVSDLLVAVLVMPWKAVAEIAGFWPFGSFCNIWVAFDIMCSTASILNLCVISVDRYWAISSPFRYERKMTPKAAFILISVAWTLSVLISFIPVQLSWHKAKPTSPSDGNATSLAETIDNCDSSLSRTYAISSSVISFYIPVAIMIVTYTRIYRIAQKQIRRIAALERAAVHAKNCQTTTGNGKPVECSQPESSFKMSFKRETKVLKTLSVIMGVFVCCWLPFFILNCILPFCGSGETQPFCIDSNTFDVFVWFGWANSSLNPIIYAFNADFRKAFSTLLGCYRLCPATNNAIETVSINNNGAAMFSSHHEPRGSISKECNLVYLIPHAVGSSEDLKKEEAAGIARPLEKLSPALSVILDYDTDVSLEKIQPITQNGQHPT
T2 sequence (P41145 whole entry): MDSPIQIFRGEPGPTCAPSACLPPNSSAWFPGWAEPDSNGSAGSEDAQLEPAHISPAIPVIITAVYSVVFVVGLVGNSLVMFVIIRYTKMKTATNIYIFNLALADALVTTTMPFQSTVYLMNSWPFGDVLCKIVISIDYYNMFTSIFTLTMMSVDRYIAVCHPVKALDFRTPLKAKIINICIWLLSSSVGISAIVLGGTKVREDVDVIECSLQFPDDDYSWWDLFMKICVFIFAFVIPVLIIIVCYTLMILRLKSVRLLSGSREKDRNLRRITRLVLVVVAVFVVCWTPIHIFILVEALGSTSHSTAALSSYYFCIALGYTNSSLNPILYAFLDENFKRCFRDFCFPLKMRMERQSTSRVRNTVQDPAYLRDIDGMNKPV
T6 sequence (P08908 whole entry): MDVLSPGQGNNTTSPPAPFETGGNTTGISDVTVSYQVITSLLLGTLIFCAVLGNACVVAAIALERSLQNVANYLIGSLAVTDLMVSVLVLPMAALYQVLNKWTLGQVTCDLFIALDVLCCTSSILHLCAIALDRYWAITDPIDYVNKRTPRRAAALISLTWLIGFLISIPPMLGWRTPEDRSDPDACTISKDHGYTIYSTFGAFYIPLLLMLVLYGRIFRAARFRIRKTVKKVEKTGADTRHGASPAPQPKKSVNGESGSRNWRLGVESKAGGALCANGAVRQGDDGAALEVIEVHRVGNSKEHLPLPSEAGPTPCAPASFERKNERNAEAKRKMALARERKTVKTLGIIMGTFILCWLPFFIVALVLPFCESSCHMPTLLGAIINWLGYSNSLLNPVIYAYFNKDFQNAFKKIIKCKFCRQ
T4 sequence (P43140 whole entry): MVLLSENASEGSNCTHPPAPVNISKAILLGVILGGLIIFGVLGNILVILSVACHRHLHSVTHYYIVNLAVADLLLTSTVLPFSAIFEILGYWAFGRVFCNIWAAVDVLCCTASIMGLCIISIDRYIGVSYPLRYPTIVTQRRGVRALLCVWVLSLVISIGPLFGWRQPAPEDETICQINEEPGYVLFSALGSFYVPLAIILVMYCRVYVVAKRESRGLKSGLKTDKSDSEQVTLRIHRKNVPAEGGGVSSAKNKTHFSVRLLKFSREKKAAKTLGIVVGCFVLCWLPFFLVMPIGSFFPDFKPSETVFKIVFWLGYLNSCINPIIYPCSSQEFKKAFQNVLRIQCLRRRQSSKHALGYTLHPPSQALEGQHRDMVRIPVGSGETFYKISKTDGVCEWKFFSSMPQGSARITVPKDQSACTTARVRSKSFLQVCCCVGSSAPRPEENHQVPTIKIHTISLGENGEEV
Chain of Adrenergic, Beta 2 (hr) (P07550 whole entry): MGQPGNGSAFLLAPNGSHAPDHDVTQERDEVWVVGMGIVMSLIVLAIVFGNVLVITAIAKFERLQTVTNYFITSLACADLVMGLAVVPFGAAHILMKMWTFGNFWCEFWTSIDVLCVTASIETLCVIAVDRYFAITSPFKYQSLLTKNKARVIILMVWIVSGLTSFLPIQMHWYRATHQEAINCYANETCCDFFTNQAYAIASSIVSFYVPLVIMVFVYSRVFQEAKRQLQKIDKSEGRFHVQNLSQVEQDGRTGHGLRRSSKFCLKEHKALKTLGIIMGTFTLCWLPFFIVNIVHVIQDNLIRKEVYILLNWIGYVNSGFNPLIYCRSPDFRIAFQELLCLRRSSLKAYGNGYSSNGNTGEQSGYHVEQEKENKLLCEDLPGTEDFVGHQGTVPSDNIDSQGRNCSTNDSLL
T3 sequence (P08912 whole entry): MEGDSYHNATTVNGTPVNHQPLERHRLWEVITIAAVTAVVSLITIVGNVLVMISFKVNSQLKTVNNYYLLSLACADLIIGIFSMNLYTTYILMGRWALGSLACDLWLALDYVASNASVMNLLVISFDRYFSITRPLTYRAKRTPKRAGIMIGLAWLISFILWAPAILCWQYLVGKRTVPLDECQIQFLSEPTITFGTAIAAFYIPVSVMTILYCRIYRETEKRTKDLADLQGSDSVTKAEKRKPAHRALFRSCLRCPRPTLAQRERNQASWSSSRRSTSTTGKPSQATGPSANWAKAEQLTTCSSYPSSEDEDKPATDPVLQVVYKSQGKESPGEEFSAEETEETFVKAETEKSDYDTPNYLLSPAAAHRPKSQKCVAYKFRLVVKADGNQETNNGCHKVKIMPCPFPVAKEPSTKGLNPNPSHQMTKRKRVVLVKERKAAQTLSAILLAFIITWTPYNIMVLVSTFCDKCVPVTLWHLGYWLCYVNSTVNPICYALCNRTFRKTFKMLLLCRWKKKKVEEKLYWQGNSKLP
Chain of Adrenergic, Alpha 2C (hr) (P18825 whole entry): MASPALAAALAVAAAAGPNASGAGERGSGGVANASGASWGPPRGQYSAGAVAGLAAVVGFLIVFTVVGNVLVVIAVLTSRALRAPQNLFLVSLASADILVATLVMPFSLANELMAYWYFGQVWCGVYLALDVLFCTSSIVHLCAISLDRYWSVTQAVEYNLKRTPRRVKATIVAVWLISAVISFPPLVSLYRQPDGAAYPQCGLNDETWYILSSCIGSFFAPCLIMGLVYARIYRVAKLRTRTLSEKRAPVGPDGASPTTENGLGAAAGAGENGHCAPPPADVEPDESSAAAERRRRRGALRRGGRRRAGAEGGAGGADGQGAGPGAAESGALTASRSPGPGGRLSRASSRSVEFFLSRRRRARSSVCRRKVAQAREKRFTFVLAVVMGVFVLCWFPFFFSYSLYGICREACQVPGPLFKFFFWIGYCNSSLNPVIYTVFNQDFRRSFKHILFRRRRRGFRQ

As a reminder, the inhibition is the drop in the measured response relative to a control, in per cent. On to `CN(C)CC(c1ccc(O)cc1)C1(O)CCC(O)CC1` (stereo not drawn) [1-[2-dimethylamino-1-(4-phenol)ethyl]-cis-1,4-cyclohexandiol], for which the inhibition at 10 µM was 3.06% in data set [1]; 49.7% in data set [4] (Norepinephrine transporter, Test Compound @ 10 1 M, read-out: Receptor Binding % Inhibition); -4.17% in data set [5]; 5.4% in [6]; -5.73% in data set [10]; -1.96% in data set [11]. Also, the inhibition at 10 µM in data set [12] (Serotonin Transporter, Test Compound @ 10 1 M, read-out: Receptor Binding % Inhibition) was 94.5%; in [15] it was 1.8%; in data set [18], -2.46%. In addition, the “Receptor Binding % Inhibition” value in [2] was 8.49%; in [9] it was 0.20%; in [13], −1.07%; in [17] it was 11.20%; in [19], −8.51%. Also, the “effect versus the SNL/vehicle” value in [3] (10 and 30 mg/kg) was “positive trend”. Moreover, the “MED, reversal of mechanical hyperalgesia” value in data set [3] (spinal nerve ligation, p.o.) stood at 10 mg/kg. Further, the “reversal of mechanical hyperalgesia” value in data set [3] (spinal nerve ligation, p.o.) was “statistically significant reversal”. Also, the “norepinephrine reuptake inhibition activity” value in [4] (setting [20]) is reported as “acceptable”. The half-life in [7] and in data set [14] was more than 60 min in each case. Also, the “reversal of visceral pain (reduction in writhing)” value in data set [8] (100 mg/kg p.o., 60 minutes prior to PPQ, 100 mg/kg) was “statistically significant reversal; also recorded: significant reduction”. In [8] (10 and 30 mg/kg p.o.), the reduction in writhing entry is “not statistically significant”. For the same compound, the “serotonin reuptake inhibition activity” value in [12] (setting [20]) is listed as “very good”. Besides, in data set [16], the “effect on acute pain” value is on record as “not found to affect acute pain”.
